Measured values from US11459324B2, “O-glycoprotein-2-acetamido-2-deoxy-3-D-glycopyranosidase inhibitors” (BIOGEN MA INC., priority 2018, dated 2022).

The compounds below were run against T1, Recombinant full length human OGA enzyme (Homo sapiens, UniProt O60502) (assay: OGA Enzyme Inhibition Biochemical Assay). Conditions: 1 nM OGA, 100 μM 4-MUGlcNAc (Km), pH 6.4, 90 minutes at room temperature, 10-point dose-response from 20 μM.
T1 construct: Recombinant full length human OGA enzyme was purchased from Origene; purchased Origene
T1 sequence (O60502 1-916): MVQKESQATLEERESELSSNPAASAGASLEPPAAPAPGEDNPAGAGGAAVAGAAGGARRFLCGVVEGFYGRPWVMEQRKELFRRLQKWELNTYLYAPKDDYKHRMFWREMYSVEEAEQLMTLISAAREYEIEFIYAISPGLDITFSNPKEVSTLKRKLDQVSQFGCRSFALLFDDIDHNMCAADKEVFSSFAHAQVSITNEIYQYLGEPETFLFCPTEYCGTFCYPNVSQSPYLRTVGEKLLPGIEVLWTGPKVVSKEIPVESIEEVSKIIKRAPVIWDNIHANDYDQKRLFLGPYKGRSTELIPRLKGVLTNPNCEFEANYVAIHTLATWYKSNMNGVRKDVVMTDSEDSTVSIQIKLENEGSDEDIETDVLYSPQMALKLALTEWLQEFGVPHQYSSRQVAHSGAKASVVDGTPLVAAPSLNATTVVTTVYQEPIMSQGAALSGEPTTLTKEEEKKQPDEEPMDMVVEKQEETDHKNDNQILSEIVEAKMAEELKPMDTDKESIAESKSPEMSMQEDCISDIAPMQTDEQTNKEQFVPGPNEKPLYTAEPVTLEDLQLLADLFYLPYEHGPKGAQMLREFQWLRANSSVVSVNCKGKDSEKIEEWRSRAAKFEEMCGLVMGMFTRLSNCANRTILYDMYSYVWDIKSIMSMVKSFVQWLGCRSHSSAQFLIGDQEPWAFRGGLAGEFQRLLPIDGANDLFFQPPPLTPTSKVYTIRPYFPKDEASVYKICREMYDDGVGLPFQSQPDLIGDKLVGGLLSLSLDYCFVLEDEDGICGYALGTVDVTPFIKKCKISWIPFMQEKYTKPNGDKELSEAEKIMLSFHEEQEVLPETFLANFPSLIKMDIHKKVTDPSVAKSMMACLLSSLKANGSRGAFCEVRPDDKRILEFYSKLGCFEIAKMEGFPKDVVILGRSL
Experimental: OGA Enzyme Inhibition Biochemical Assay
Recombinant full length human OGA enzyme was purchased from Origene. 4-MUGlCNAc substrate was purchased from Sigma. All other reagents were purchased from Sigma or Fisher. Assay buffer consists of the McIlvaine buffer system, pH 6.4 (0.2M Na2HPO4 mixed with 0.1M citric acid) and 0.01% BSA. Reactions consist of 1 nM OGA, 100 μM 4-MUGlcNAc (Km), and compound in a final volume of 10 μl. Reactions were incubated for 90 minutes at room temperature and quenched with 40 μl of 3M glycine, pH 10 and read on a Perkin Elmer Envision plate reader (Ex: 355 nm/Em: 460 nm). Compounds were tested with a 10-point dose-response starting from 20 μM with a 4-fold dilution. Data was fit using GraphPad Prism using a 4-parameter fit with variable slope.

IC50 [nM] | SMILES
2 | CC(=O)Nc1ncc(CN2CCC[C@H](Cc3ccc(C(F)F)cn3)C2)s1 [Example 3-5, (R)-N-(5-((3-((5-(difluoromethyl)pyridin-2-yl)methyl)piperidin-1-yl)methyl)thiazol-2-yl)acetamide]
1600 | CC(=O)Nc1ncc(CN2CCC(C)(Cc3ncc(F)cn3)C2)s1 (stereo not shown) [Example 2-35, N-(5-((3-((5-fluoropyrimidin-2-yl)methyl)-3-methylpyrrolidin-1-yl)methyl)thiazol-2-yl)acetamide]
180 | CC(=O)Nc1ncc(CN2CCC(Cc3ccc(F)cc3)C2)s1 (stereo not shown) [Example 1-17, N-(5-((3-(4-fluorobenzyl)pyrrolidin-1-yl)methyl)thiazol-2-yl)acetamide]
8 | COc1ccc(CC2CCCN(Cc3cnc(NC(C)=O)s3)C2)cc1 (stereo not shown) [Example 1-4, N-(5-((3-(4-methoxybenzyl)piperidin-1-yl)methyl)thiazol-2-yl)acetamide]
14 | COc1cc(C[C@H]2CCN(Cc3sc(NC(C)=O)nc3F)C2)ncn1 [Example 3-31, (R)-N-(4-fluoro-5-((3-((6-methoxypyrimidin-4-yl)methyl)pyrrolidin-1-yl)methyl)thiazol-2-yl)acetamide]
27 | CC(=O)Nc1ncc(CN2CCCC(Cc3nnc4ccccn34)C2)s1 (stereo not shown) [Example 4-23, N-(5-((3-([1,2,4]triazolo[4,3-a]pyridin-3-ylmethyl)piperidin-1-yl)methyl)thiazol-2-yl)acetamide]
240 | CC(=O)Nc1ncc(CN2CCCC(F)(Cc3ncc(F)cn3)C2)s1 (stereo not shown) [Example 2-12, N-(5-((3-fluoro-3-((5-fluoropyrimidin-2-yl)methyl)piperidin-1-yl)methyl)thiazol-2-yl)acetamide]
1 | COc1nc(C[C@H]2CCCN(Cc3cnc(NC(C)=O)s3)C2)nc(C)c1F [Example 3-8, (R)-N-(5-((3-((5-fluoro-4-methoxy-6-methylpyrimidin-2-yl)methyl)piperidin-1-yl)methyl)thiazol-2-yl)acetamide]
8.3 | CC(=O)Nc1nc(F)c(CN2CC[C@H](Cc3cc(C)ncc3F)C2)s1 [Example 3-28, (S)—N-(4-fluoro-5-((3-((5-fluoro-2-methylpyridin-4-yl)methyl)pyrrolidin-1-yl)methyl)thiazol-2-yl)acetamide]
7 | CC(=O)Nc1ncc(CN2CCCC(Cc3cncc(F)c3)C2)s1 (stereo not shown) [Example 1-12, N-(5-((3-((5-fluoropyridin-3-yl)methyl)piperidin-1-yl)methyl)thiazol-2-yl)acetamide]
8.9 | CC(=O)Nc1ncc(CN2CCC[C@H](Cc3ccc(Cl)cc3)C2)s1 (stereo in doubt) [Example 4-25, N-(5-((3-(4-chlorobenzyl)piperidin-1-yl)methyl)thiazol-2-yl)acetamide]
13 | COc1ccnc(CC2CCN(Cc3cnc(NC(C)=O)s3)C2)c1 (stereo not shown) [Example 1-21, N-(5-((3-((4-methoxypyridin-2-yl)methyl)pyrrolidin-1-yl)methyl)thiazol-2-yl)acetamide]
220 | CC(=O)Nc1ncc(CN2CCC(Cc3ccc(F)cn3)C2)s1 (stereo not shown) [Example 1-25, N-(5-((3-((5-fluoropyridin-2-yl)methyl)pyrrolidin-1-yl)methyl)thiazol-2-yl)acetamide]
330 | CC(=O)Nc1ncc(CN2CCC[C@H]([C@H](C)c3ncc(F)cn3)C2)s1 (single isomer, unassigned) [Example 2-32]
380 | CC(=O)Nc1ncc(CN2CCCC(Cn3cc(C(C)C)cn3)C2)s1 (stereo not shown) [Example 4-7, N-(5-((3-((4-isopropyl-1H-pyrazol-1-yl)methyl)piperidin-1-yl)methyl)thiazol-2-yl)acetamide]
500 | CC(=O)Nc1ncc(CN2CCCC(Cn3cc(F)cn3)C2)s1 (stereo not shown) [Example 4-1, N-(5-((3-((4-fluoro-1H-pyrazol-1-yl)methyl)piperidin-1-yl)methyl)thiazol-2-yl)acetamide]

IC50 [nM] | SMILES
< 1 | CC(=O)Nc1nc(F)c(CN2C[C@@H](Cc3noc(C)n3)C[C@@H]2C)s1 (single isomer, unassigned) [Example 4-12 Peak 1]
1.2 | CCC(=O)Nc1nc(F)c(CN2CCC[C@H](Cc3ncc(F)cn3)C2)s1 [Example 3-17, (R)-N-(4-fluoro-5-((3-((5-fluoropyrimidin-2-yl)methyl)piperidin-1-yl)methyl)thiazol-2-yl)propionamide]
< 1 | CC(=O)Nc1nc(F)c(CN2C[C@@H](Cc3ncc(F)cn3)C[C@H]2C)s1 [Example 3-42, N-(4-fluoro-5-(((2R,4R)-4-((5-fluoropyrimidin-2-yl)methyl)-2-methylpyrrolidin-1-yl)methyl)thiazol-2-yl)acetamide]
11 | CC(=O)Nc1ncc(CN2CCCC(Cc3nccs3)C2)s1 (stereo not shown) [Example 1-39, N-(5-((3-(thiazol-2-ylmethyl)piperidin-1-yl)methyl)thiazol-2-yl)acetamide]
27 | CC(=O)Nc1ncc(CN2CC[C@@H](C)[C@@H](Cc3ncc(F)cn3)C2)s1 (single isomer, unassigned) [Example 2-40]
9.3 | CC(=O)Nc1ncc(CN2CCCC(Cc3noc(C)n3)C2)s1 (stereo not shown) [Example 4-19, N-(5-((3-((5-methyl-1,2,4-oxadiazol-3-yl)methyl)piperidin-1-yl)methyl)thiazol-2-yl)acetamide]
87 | COc1cc(C[C@@H]2C[C@@H](C)N(Cc3sc(NC(C)=O)nc3F)C2)ncn1 [Example 3-43, N-(4-fluoro-5-(((2R,4S)-4-((6-methoxypyrimidin-4-yl)methyl)-2-methylpyrrolidin-1-yl)methyl)thiazol-2-yl)acetamide]
2 | COc1cnc(CC2CCCN(Cc3cnc(NC(C)=O)s3)C2)nc1 (stereo not shown) [Example 2-4, N-(5-((3-((5-methoxypyrimidin-2-yl)methyl)piperidin-1-yl)methyl)thiazol-2-yl)acetamide]
5 | CC(=O)Nc1ncc(CN2C[C@H](Cc3ncc(F)cn3)CC[C@@H]2C)s1 (single isomer, unassigned) [Example 2-25]
30 | CC(=O)Nc1ncc(CN2CCC[C@H](Cc3ncc(C(F)(F)F)cn3)C2)s1 [Example 2-9, (R)-N-(5-((3-((5-(trifluoromethyl)pyrimidin-2-yl)methyl)piperidin-1-yl)methyl)thiazol-2-yl)acetamide]
510 | CC(=O)Nc1ncc(CN2CCCC(Cc3ncc(F)cn3)C2C)s1 (stereo not shown) [Example 2-41, N-(5-((3-((5-fluoropyrimidin-2-yl)methyl)-2-methylpiperidin-1-yl)methyl)thiazol-2-yl)acetamide]
310 | CC(=O)Nc1nc(F)c(CN2C[C@H](Cc3ncc(F)cn3)C[C@H]2C)s1 [Example 3-39, N-(4-fluoro-5-(((2R,4S)-4-((5-fluoropyrimidin-2-yl)methyl)-2-methylpyrrolidin-1-yl)methyl)thiazol-2-yl)acetamide]
4 | CC(=O)Nc1ncc(CN2CCC[C@H]([C@@H](C)c3ncc(F)cn3)C2)s1 (single isomer, unassigned) [Example 2-31]
358 | CC(=O)Nc1ncc(CN2C[C@H](Cc3ncc(F)cn3)C[C@@H]2C)s1 (single isomer, unassigned) [Example 2-18]
38 | CC(=O)Nc1ncc(CN2CCCC(Cn3cncn3)C2)s1 (stereo not shown) [Example 4-21, N-(5-((3-((1H-1,2,4-triazol-1-yl)methyl)piperidin-1-yl)methyl)thiazol-2-yl)acetamide]
